# Reference: patent publication US8951999B2, “Compounds” (Orexo AB, priority 2009, dated 2015)
# pIC50: −log10 of the molar value.
# Target: T1, recombinant human mPGES-1 (Homo sapiens, UniProt O14684)
# T1 sequence (O14684 1-152): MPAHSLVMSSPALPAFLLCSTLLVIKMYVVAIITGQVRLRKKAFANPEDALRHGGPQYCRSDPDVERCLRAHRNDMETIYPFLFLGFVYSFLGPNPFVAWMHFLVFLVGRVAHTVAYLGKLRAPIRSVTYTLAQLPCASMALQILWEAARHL
# Experiment: Assay B: mPGES-1 enzyme assay (modified)
# Format: biochemical
# Conditions: biological assay B (all other compounds); PGH2 final conc. 2 μM, HTRF; read-out: mPGES-1 inhibitory effect IC50
# Protocol: Assay B: mPGES-1 Enzyme Assay (Modified)
# The aim of this assay is to determine the affinity of a test compound for the mPGES-1 enzyme.
# 47 μl of recombinant human mPGES-1 (˜0.5 μg protein/well) containing microsomal suspension in a buffer containing GSH, (2.5 mmol/L L-Glutathione reduced, dissolved in 0.1 mol/L Phosphat Buffer pH 7.4) is dispensed in a 384-well plate and thereafter 1 μl of the test compound(s) is/are added and incubated for 25 minutes at room temperature. The enzyme reaction is started by the addition of 2 ul PGH2 (final conc. 2 μM) dissolved in water-free Diglyme. After 60 seconds the reaction is terminated by addition of a stop solution containing FeCl2 (10 μL 0.074 mol/l FeCl2). The samples are diluted between 1:25 in PBS (Phosphate Buffered Saline). 10 μl of the diluted samples are transferred to 384-well low volume plate. In order to quantify the amount of PGE2 that has been formed, a homogenous time resolved fluorescent (HTRF) detecting of PGE2 has been performed using a commercially available kit from Cisbio according to the manufactures recommendation. This HTRF-based assay has been described in detail (see: Goedken et al., J Biomol Screen, 2008, 13(7), 619-625). Briefly, the diluted samples are mixed with […] PGE2-d2 conjugate and 5 μl anti-PGE2 cryptate conjugate. After an incubation period of the plates over night, the fluorescence is measured by the use of an appropriate microplate reader.
# The fluorescence of Europium cryptate (maxex=307 nm, maxem=620 nm) and d2-PGE2 (maxex=620 nm, maxem=665 nm) are measured.
# The extent of the specific HTRF is measured as a ratio of the emission intensity at 665 nm vs. that at 620 nm at an excitation pulse of 320 nm. The quantification plate contains also wells with different concentrations of PGE2 as calibration curve for the calculation of the PGE2 concentrations from the HTRF ratio values.
# From all mPGES enzyme assay the background is subtracted and the IC50 is calculated over a nonlinear regression with conventional software.
row,Compound,pIC50
1,COc1cc(NC(=O)c2cc(NC(=O)c3cc(CNC(=O)C(C)(C)C(F)(F)F)ccc3Cl)ccc2OCC(F)F)ccc1Br [Example 120],8.15
2,CN1CCC[C@H]1C(=O)NCc1ccc(Cl)c(C(=O)Nc2ccc(OCC(F)F)c(C(=O)Nc3ccc(Br)cc3)c2)c1 [Example 161],7.89
3,Cc1nc(C(=O)NCc2ccc(Cl)c(C(=O)Nc3ccc(OCC(F)F)c(C(=O)Nc4ccc(Br)cc4)c3)c2)c(C)s1 [Example 168],6.98
4,O=C(Nc1ccc(OCC(F)F)c(C(=O)Nc2ccc(Br)cc2)c1)c1cc(CNC(=O)C(O)C(F)(F)F)ccc1Cl (centres unmarked) [Example 169],8.05
5,N#CC1(C(=O)NCc2ccc(Cl)c(C(=O)Nc3ccc(OCC(F)F)c(C(=O)Nc4ccc(Br)cc4)c3)c2)CC1 [Example 173],7.32
6,"CC(C)(C)C(=O)NCc1ccc(C(F)(F)F)c(C(=O)Nc2ccc(OCC(F)F)c(C(=O)Nc3ccc(Br)cc3)c2)c1 [Example 42, N-[4-(2,2-Difluoroethyl)oxy-3-(4-bromophenyl)aminocarbonyl-phenyl]-2-trifluormethyl-5-(tert-butylcarbonylamino)methyl-benzamide]",8.52
7,CC(C)(C(=O)NCc1ccc(Cl)c(C(=O)Nc2ccc(OCC(F)F)c(C(=O)Nc3ccc(Br)c(Cl)c3)c2)c1)C(F)(F)F [Example 105],8.30
8,"CC(C)(C)C(=O)NCc1ccc(F)c(C(=O)Nc2ccc(OCC(F)F)c(C(=O)Nc3ccc(Br)cc3)c2)c1Cl [Example 44, N-[4-(2,2-Difluoroethyl)oxy-3-(4-bromophenyl)aminocarbonyl-phenyl]-6-fluor-2-chlor-3-(tert-butylcarbonylamino)methyl-benzamide]",7.82
9,CC(N)(C(=O)NCc1ccc(Cl)c(C(=O)Nc2ccc(OCC(F)F)c(C(=O)Nc3ccc(Br)cc3)c2)c1)C(F)(F)F (centres unmarked) [Example 171],8.22
10,CC(C)(C(=O)NCc1ccc(Cl)c(C(=O)Nc2ccc(OCC(F)F)c(C(=O)Nc3ccc(Br)c(F)c3)c2)c1)C(F)(F)F [Example 133],8.22
11,CC(C)(C(=O)NCc1ccc(Cl)c(C(=O)Nc2ccc(OCC(F)F)c(C(=O)Nc3ccnc4ccccc34)c2)c1)C(F)(F)F [Example 131],8.05
12,"CC(C)(C)C(=O)NCc1ccc(Cl)c(C(=O)Nc2cnc(OCC(F)F)c(C(=O)Nc3cc(F)cc(Cl)c3)c2)c1Cl [Example 75, N-[2-(2,2-Difluoroethoxy)-3-(3-chloro-5-fluorophenyl)aminocarbonyl-pyridin-5-yl]-2,6-dichloro-5-(tert-butylcarbonylamino)methyl-benzamide]",8.22
13,O=C(Nc1ccc(OCC(F)F)c(C(=O)Nc2ccc(Br)cc2)c1)c1cc(CNC(=O)C2CCCN2c2nccs2)ccc1Cl (centres unmarked) [Example 164],7.10
14,O=C(Nc1ccc(OCC(F)F)c(C(=O)Nc2ccc(Br)cc2)c1)c1cc(CNC(=O)C2(O)CC2)ccc1Cl [Example 162],8.10
15,CC(C)(C#N)C(=O)NCc1ccc(Cl)c(C(=O)Nc2ccc(OCC(F)F)c(C(=O)Nc3ccc(Br)cc3)c2)c1 [Example 165],8.10
16,"COCCOc1ccc(NC(=O)c2cc(CNC(=O)C(C)C(F)(F)F)ccc2Cl)cc1C(=O)Nc1ccc(Br)cc1 (centres unmarked) [Example 65, N-[4-(2-Methoxy)ethoxy-3-(4-bromphenyl)aminocarbonyl-phenyl]-2-chloro-5-(2,2,2-trifluoro-1-methyl-ethyl)carbonylaminomethyl-benzamide]",8.40

# The next lines start with the values.
row,pIC50,Compound
1,8.10,CC(C)(C(=O)NCc1ccc(Cl)c(C(=O)Nc2ccc(OCC(F)F)c(C(=O)NCC(F)(F)F)c2)c1Cl)C(F)(F)F [Example 147]
2,7.37,CC(C)(C(=O)NCc1ccc(Cl)c(C(=O)Nc2ccc(OCC(F)F)c(C(=O)NCC3CCCOC3)c2)c1)C(F)(F)F (centres unmarked) [Example 98]
3,7.40,CC(C)(C(=O)NCc1ccc(Cl)c(C(=O)Nc2ccc(OCC(F)F)c(C(=O)NC[C@@H]3CCCO3)c2)c1)C(F)(F)F [Example 117]
4,8.15,CC(C)(C(=O)NCc1ccc(Cl)c(C(=O)Nc2ccc(OCC(F)F)c(C(=O)Nc3ncc(Cl)s3)c2)c1)C(F)(F)F [Example 83]
5,6.63,CC(C)(C(=O)NCc1ccc(Cl)c(C(=O)Nc2ccc(OCC(F)F)c(C(=O)NC3CCC(CO)CC3)c2)c1)C(F)(F)F (centres unmarked) [Example 103]
6,8.22,"CC(C)(C(=O)NCc1ccc(Cl)c(C(=O)Nc2ccc(OCC(F)F)c(C(=O)Nc3ccc(Br)cc3)c2)c1Cl)C(F)(F)F [Example 47, N-[4-(2,2-Difluoroethyl)oxy-3-(4-bromophenyl)aminocarbonyl-phenyl]-2,6-dichloro-3-(2,2,2-trifluoro-1,1-dimethyl-ethyl)carbonylaminomethyl-benzamide]"
7,8.10,"CC(C)(C(=O)NCc1ccc(Cl)c(C(=O)Nc2ccc(OCC(F)F)c(C(=O)N[C@H]3CC[C@H](C(F)(F)F)CC3)c2)c1)C(F)(F)F [Example 82, N-[4-(2,2-difluoroethyl)oxy-3-(trans-4-trifluoromethylcyclohexyl)aminocarbonyl-phenyl]-2-chloro-5-[(2,2,2-trifluoro-1,1-dimethyl-ethyl)carbonylamino}methyl-benzamide]"
8,8.30,CC(C)(C)C1CCC(NC(=O)c2cc(NC(=O)c3cc(CNC(=O)C(C)(C)C(F)(F)F)ccc3Cl)ccc2OCC(F)F)CC1 (centres unmarked) [Example 87]
9,8.10,CC(C)CNC(=O)c1cc(NC(=O)c2cc(CNC(=O)C(C)(C)C(F)(F)F)ccc2Cl)ccc1OCC(F)F [Example 140]
10,8.10,CC(C)(C(=O)NCc1ccc(Cl)c(C(=O)Nc2ccc(OCC(F)F)c(C(=O)NCC3CC3)c2)c1)C(F)(F)F [Example 95]
11,8.22,"CC(C)(C)C(=O)NCc1ccc(Cl)c(C(=O)Nc2ccc(OCC(F)F)c(C(=O)N[C@H]3CC[C@H](C(F)(F)F)CC3)c2)c1Cl [Example 48, N-[4-(2,2-Difluoroethyl)oxy-3-[trans-(4-trifluoromethylcyclohexyl)amino]carbonylphenyl]-2,6-dichloro-3-(tert-butylcarbonylamino)methyl-benzamide]"
12,7.72,CC(C)(C(=O)NCc1ccc(Cl)c(C(=O)Nc2ccc(OCC(F)F)c(C(=O)Nc3nc4c(s3)CCC4)c2)c1)C(F)(F)F [Example 127]
13,7.92,CC(C)(C)C(=O)NCc1ccc(Cl)c(C(=O)Nc2cnc(OCC(F)F)c(C(=O)Nc3ccc(Cl)c(F)c3)c2)c1Cl [Example 76]
14,8.30,CC(C)(C(=O)NCc1ccc(Cl)c(C(=O)Nc2ccc(OCC(F)F)c(C(=O)NCc3ncccc3C(F)(F)F)c2)c1)C(F)(F)F [Example 138]
15,8.22,CC(C)(C(=O)NCc1ccc(Cl)c(C(=O)Nc2ccc(OCC(F)F)c(C(=O)NC3CCC(C(F)F)CC3)c2)c1)C(F)(F)F (centres unmarked) [Example 142]
16,8.40,CC(C)(C)C(=O)NCc1ccc(Cl)c(C(=O)Nc2ccc(N3CCC(F)(F)C3)c(C(=O)Nc3ccc(Br)cc3)c2)c1Cl [Example 179]
17,8.40,CC(C)(C(=O)NCc1ccc(Cl)c(C(=O)Nc2ccc(OCC(F)F)c(C(=O)NC3CCC(C(F)F)CC3)c2)c1Cl)C(F)(F)F (centres unmarked) [Example 149]
18,8.30,Cc1ccc(Cl)cc1NC(=O)c1cc(NC(=O)c2c(Cl)ccc(CNC(=O)C(C)(C)C(F)(F)F)c2Cl)ccc1OCC(F)F [Example 153]
19,8.70,"CC(C)(C(=O)NCc1ccc(Cl)c(C(=O)Nc2ccc(OCC(F)F)c(C(=O)Nc3ccc(F)c(Cl)c3)c2)c1F)C(F)(F)F [Example 77, N-[4-(2,2-Difluoroethyl)oxy-3-(4-fluoro-3-chloro-phenyl)aminocarbonyl-phenyl]-6-chloro-2-fluoro-3-[(2,2,2-trifluoro-1,1-dimethyl-ethyl)carbonylamino]methyl-benzamide]"
20,8.30,CC1(C)CC1CNC(=O)c1cc(NC(=O)c2cc(CNC(=O)C(C)(C)C(F)(F)F)ccc2Cl)ccc1OCC(F)F (centres unmarked) [Example 107]
21,8.30,"CC(C)(C(=O)NCc1ccc(Cl)c(C(=O)Nc2ccc(N3CCC(C(F)(F)F)CC3)c(C(=O)NCC3CC3)c2)c1Cl)C(F)(F)F [Example 59, N-[4-(4-Trifluoromethyl-piperidin-1-yl)-3-(cyclopropylmethyl)aminocarbonyl-phenyl]-2,6-dichloro-3-[(2,2,2-trifluoro-1,1-dimethyl-ethyl)carbonylamino]methyl-benzamide]"
22,8.52,"CC(C)(C)C(=O)NCc1ccc(Cl)c(C(=O)Nc2ccc(N3CCC(C(F)(F)F)CC3)c(C(=O)N[C@H]3CC[C@H](C(F)(F)F)CC3)c2)c1 [Example 58, N-[4-(4-Trifluoromethyl-piperidin-1-yl)-3-(trans-4-trifluoromethylcyclohexyl)aminocarbonyl-phenyl]-2-chloro-5-(tert-butylcarbonylamino)methyl-benzamide]"
